In publication PMC12654597, “Dawson- and Lindqvist-Type Hybrid Polyoxometalates: Synthesis, Characterization and Ca^2+-ATPase Inhibition Potential” (Molecules, 2025):
Read-outs that look alike come from different tables or passages of the source. Each block holds one molecule with its values, some of them ahead of it.

How the values were obtained:
Ca^2+-ATPase = details: literature values for known P-type ATPase inhibitors; cited from earlier work
[1] = target: T1, sarcoplasmic reticulum (SR) Ca^2+-ATPase (Oryctolagus cuniculus, UniProt P04191); details: cited from earlier work; for IC50: same experimental model, method and conditions
T1 construct: The experiments were performed with isolated sarcoplasmic reticulum vesicles (SRVs); from tissue; host or cells: rabbit skeletal muscle sarcoplasmic reticulum vesicles
T1 sequence (P04191 1-994 isoform P04191-2): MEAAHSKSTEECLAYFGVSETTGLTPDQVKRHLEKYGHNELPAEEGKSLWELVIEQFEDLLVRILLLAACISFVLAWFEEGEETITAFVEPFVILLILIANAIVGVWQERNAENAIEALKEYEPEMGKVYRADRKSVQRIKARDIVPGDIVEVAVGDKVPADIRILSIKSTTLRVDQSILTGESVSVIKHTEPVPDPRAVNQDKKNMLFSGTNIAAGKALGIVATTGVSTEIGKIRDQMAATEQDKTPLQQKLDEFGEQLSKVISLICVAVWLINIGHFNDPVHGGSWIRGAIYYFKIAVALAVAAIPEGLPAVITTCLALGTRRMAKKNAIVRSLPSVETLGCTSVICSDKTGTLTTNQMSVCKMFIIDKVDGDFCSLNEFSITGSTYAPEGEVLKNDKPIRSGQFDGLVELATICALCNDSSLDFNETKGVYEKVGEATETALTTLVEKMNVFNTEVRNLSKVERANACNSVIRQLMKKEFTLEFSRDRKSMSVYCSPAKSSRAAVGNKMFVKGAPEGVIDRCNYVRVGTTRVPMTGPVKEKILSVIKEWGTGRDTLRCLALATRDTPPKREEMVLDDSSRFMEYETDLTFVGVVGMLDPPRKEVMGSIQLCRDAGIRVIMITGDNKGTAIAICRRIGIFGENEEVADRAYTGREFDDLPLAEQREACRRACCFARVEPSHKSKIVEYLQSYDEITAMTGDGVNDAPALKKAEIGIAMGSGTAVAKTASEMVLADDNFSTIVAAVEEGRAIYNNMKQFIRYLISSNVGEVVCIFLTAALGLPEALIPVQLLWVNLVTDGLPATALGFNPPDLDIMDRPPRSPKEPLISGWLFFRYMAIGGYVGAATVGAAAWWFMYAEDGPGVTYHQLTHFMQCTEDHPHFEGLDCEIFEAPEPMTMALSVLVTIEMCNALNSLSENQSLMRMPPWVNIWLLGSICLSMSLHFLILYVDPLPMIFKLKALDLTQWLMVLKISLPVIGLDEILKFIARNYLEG

[2] = target: T1, sarcoplasmic reticulum (SR) Ca^2+-ATPase; test: Sarcoplasmic reticulum Ca2+-ATPase activity, coupled enzyme pyruvate kinase/lactate dehydrogenase assay; type: biochemical, rabbit; details: for IC50: SR vesicles from rabbit skeletal muscle, pH 7.0, 25 °C, uncoupled activity (A23187), triplicate
Description: In order to evaluate the inhibition potential for each of the POMs compounds regarding the Ca^2+-ATPase activity, increasing concentrations of each POM and a control without the presence of the inhibitor were used in order to determine the IC50 values. For each of these assays, an absorbance versus time kinetic is obtained. In the absence of the POM, the control assay was obtained—that is, a kinetic with a higher slope, while by increasing the concentrations of the POMs, lower enzymatic kinetic slopes were found due to the inhibition of the ATPase activity (Figure S1).
Using this method, the effects of the inhibitors can be observed in real time and recorded within 2 to 5 min upon addition of the inhibitor, as described previously. […] For each compound, the equation governing the trendline of this can be solved for 50% in order to determine the IC50 value.
The sarcoplasmic reticulum vesicles (SRV) that contain the Ca^2+-ATPase was previously prepared from rabbit skeletal muscles as described elsewhere. The vesicles were suspended in 0.1 M KCl, 10 mM HEPES (pH 7.0), diluted 1:1 with 2.0 M sucrose, and frozen in liquid nitrogen for storage at −80 °C. […] Stock solutions of the POMs compounds (1 mM) were freshly prepared by dissolving the solid compound in miliQ water and keeping the solution at room temperature before use.
For carrying out the determination of Ca^2+-ATPase activity assays, the following medium was prepared: 25 mM HEPES (pH 7.0), 100 mM KCl, 5 mM MgCl2 and 50 µM CaCl2.
The experiments were performed with isolated sarcoplasmic reticulum vesicles (SRVs) previously diluted to 1 mg/mL with a sucrose concentration of 0.25 M (Figure 11). 0.8 mL of medium described above was added into a quartz cuvette. 0.42 mM phosphoenolpyruvate (PEP), 18 IU lactate dehydrogenase, 7.5 IU 155 pyruvate kinase, and 2.5 mM ATP without (control) or with increasing concentrations of POMs were added to this medium. […] The absorbance of the solution was measured spectrophotometrically at 340 nm, 25 °C, and an auto zero was performed. Subsequently, 0.25 mM NADH was added, allowing the absorbance value to stabilize to about 1.3 O.D. The assay begins after the addition of 10 μg/mL of Ca^2+-ATPase (basal activity) and one minute after ionophore A23187 (calcimycin) 4% (w/w) was added (uncoupled activity), and the kinetics followed for about 2 min in the absence or in the presence of increasing concentrations of POMs, from 0 to 15 μM for compound 1 and from 0 to 80 μM for compound 2. […]
For each experimental condition, the experiments were always performed in triplicate. Therefore, the determination of Ca^2+-ATPase activity without and with the inhibitor was made using a continuous enzymatic method using the measurement of absorbance versus time (Figure S1), as described elsewhere.

Molecule: Cc1ccc(-c2cc(C(F)(F)F)nn2-c2ccc(S(N)(=O)=O)cc2)cc1 [celecoxib]
IC50 (Ca^2+-ATPase): 35000 nM

Molecule: C/C=C(/C)C(=O)O[C@H]1C(C)=C2[C@H]([C@@H]1OC(=O)CCCCCCC)[C@@](C)(OC(C)=O)C[C@H](OC(=O)CCC)[C@@]1(O)[C@H]2OC(=O)[C@@]1(C)O [TG, thapsigargin]
IC50 (Ca^2+-ATPase): 1 to 29 nM

Molecule: [O]=[V]([OH])([OH])[O][V]1(=[O])[O][V]2(=[O])[O][V](=[O])([O][V](=[O])([OH])[OH])[O][V](=[O])([O]2)[O][V]2(=[O])[O][V](=[O])([O][V](=[O])([OH])[OH])[O][V](=[O])([O]1)[O]2 (stereo not shown) [V10, decavanadate]
IC50 [1]: 15 µM

Molecule: CC(=O)C1=C(O)[C@@H]2[C@H]3c4c[nH]c5cccc(c45)C[C@H]3C(C)(C)N2C1=O [CPA, cyclopiazonic acid]
IC50 (Ca^2+-ATPase): 100 to 200 nM

IC50 [2]: 3.4 µM
fold inhibition potential regarding ATPase activity relative to compound 2 ([2]; ratio of IC50 values, compound 1 vs compound 2): about 13 fold
Molecule: (C2H8N1)6[V2Mo18O62].3H2O [compound 1]

Molecule: metformin-decavanadate [Metf-V10]
IC50 ATPase inhibition value relative to V10 alone ([1]; metformin-decavanadate vs V10): six times higher
IC50 [1]: 87.4 µM

IC50 [2]: 45.1 µM
Ca^2+-ATPase inhibition potency relative to Anderson type TeW6 ([2]; comparison of IC50 values, compound 2 vs TeW6): four times more potent
Molecule: (C4H16N3)4[V2W4O19]3.12H2O [compound 2]
